# Test results: the supplement of paper PMC5579334
# ± gives the standard deviation of the averaged measurements.
# Assays:
# [1] = test system: HSC2 (primary human Schwann cells); assay: drug sensitivity score (DSS, CellTox-Green cytotoxicity, 72 h) (DSS (dimensionless)); higher = more cytotoxic; extreme values may be limits of the assay
# Method in brief: (§1)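 MPNST cell lines and primary human Schwann cells were incubated 72 h at 37 °C in 384-well plates holding five 10-fold compound dilutions. CellTox-Green was added before seeding at a final 1:1000 dilution and reported fluorescence from DNA released by disrupted cells. Signals were scaled to vehicle and positive-control wells, and cultures failing plate quality control were dropped. Drug sensitivity score and relative IC50 come from four-parameter logistic fits, with IC50 censored at the top concentration.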
# [2] = test system: HSC1 (primary human Schwann cells); assay: as above
# Method in brief: as §1
# STS26T [3] = assay: as above
# Method in brief: as §1
# ST8814 [4] = assay: as above
# Method in brief: as §1
# S1507-2 [5] = assay: as above
# Method in brief: as §1
# HS-PSS [6] = assay: as above
# Method in brief: as §1
# YST-1 [7] = assay: drug sensitivity score (DSS, CellTiter-Glo viability, 72 h) (DSS (dimensionless)); higher = more sensitive; extreme values may be limits of the assay
# Method in brief: (§2)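 Viability was scored by CellTiter-Glo ATP luminescence, scaled from vehicle to positive-control wells, with duplicates averaged where present. The cells, MPNST lines and primary human Schwann cells at 750–1000 per well, sat 72 h at 37 °C, 5% CO2, in 384-well plates preprinted with each compound at five concentrations in 10-fold steps. Four-parameter logistic fits were run on the data. These fits give drug sensitivity score and relative IC50 censored at the top concentration, and percent inhibition is reported at the top concentration.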
# S462 [8] = assay: as above
# Method in brief: as §2
# [9] = test system: HSC2 (primary human Schwann cells); assay: as above
# Method in brief: as §2
# [10] = test system: HSC1 (primary human Schwann cells); assay: as above
# Method in brief: as §2
# STS26T [11] = assay: as above
# Method in brief: as §2
# ST8814 [12] = assay: as above
# Method in brief: as §2
# S1507-2 [13] = assay: as above
# Method in brief: as §2
# HS-Sch-2 [14] = assay: as above
# Method in brief: as §2
# HS-PSS [15] = assay: as above
# Method in brief: as §2
# YST-1 [16] = assay: % inhibition of CellTiter-Glo viability at highest tested concentration (72 h), relative to DMSO and benzethonium chloride controls; higher = more inhibition
# Method in brief: as §2
# S462 [17] = assay: as above
# Method in brief: as §2
# [18] = test system: HSC2 (primary human Schwann cells); assay: as above
# Method in brief: as §2
# [19] = test system: HSC1 (primary human Schwann cells); assay: as above
# Method in brief: as §2
# STS26T [20] = assay: as above
# Method in brief: as §2
# ST8814 [21] = assay: as above
# Method in brief: as §2
# S1507-2 [22] = assay: as above
# Method in brief: as §2
# HS-Sch-2 [23] = assay: as above
# Method in brief: as §2
# HS-PSS [24] = assay: as above
# Method in brief: as §2
compound,measurement,setting,value
CN(C)C/C=C/C(=O)Nc1cc2c(Nc3ccc(F)c(Cl)c3)ncnc2cc1O[C@H]1CCOC1 [Afatinib] (max concentration tested 1000 nM),drug sensitivity score,[1],0
same,drug sensitivity score,[2],0
same,drug sensitivity score,STS26T [3],0
same,drug sensitivity score,ST8814 [4],0
same,drug sensitivity score,S1507-2 [5],0
same,drug sensitivity score,HS-PSS [6],0
same,drug sensitivity score,YST-1 [7],0
same,drug sensitivity score,S462 [8],0
same,drug sensitivity score,[9],0
same,drug sensitivity score,[10],0
same,drug sensitivity score,STS26T [11],0
same,drug sensitivity score,ST8814 [12],0
same,drug sensitivity score,S1507-2 [13],1.88 ± 2.7
same,drug sensitivity score,HS-Sch-2 [14],1.58
same,drug sensitivity score,HS-PSS [15],2.49
same,% inhibition,YST-1 [16],3.62%
same,% inhibition,S462 [17],2.97 ± 6.7%
same,% inhibition,[18],3.38%
same,% inhibition,[19],8.81%
same,% inhibition,STS26T [20],12.7%
same,% inhibition,ST8814 [21],3.12%
same,% inhibition,S1507-2 [22],11.6 ± 4.3%
same,% inhibition,HS-Sch-2 [23],21.2%
same,% inhibition,HS-PSS [24],29.9%
CC1(C)CNc2cc(NC(=O)c3cccnc3NCc3ccncc3)ccc21 [Motesanib] (max concentration tested 10000 nM),drug sensitivity score,[1],0
same,drug sensitivity score,[2],0
same,drug sensitivity score,STS26T [3],0
same,drug sensitivity score,ST8814 [4],0
same,drug sensitivity score,S1507-2 [5],0.104 ± 0.15
same,drug sensitivity score,HS-PSS [6],0
same,drug sensitivity score,YST-1 [7],0.25
same,drug sensitivity score,S462 [8],0
same,drug sensitivity score,[9],0.232
same,drug sensitivity score,[10],0
same,drug sensitivity score,STS26T [11],0
same,drug sensitivity score,ST8814 [12],0
same,drug sensitivity score,S1507-2 [13],0
same,drug sensitivity score,HS-Sch-2 [14],0
same,drug sensitivity score,HS-PSS [15],0
same,% inhibition,YST-1 [16],15%
same,% inhibition,S462 [17],4.64 ± 6.4%
same,% inhibition,[18],15.5%
same,% inhibition,[19],9.4%
same,% inhibition,STS26T [20],4.89%
same,% inhibition,ST8814 [21],-4.55%
same,% inhibition,S1507-2 [22],6.17 ± 1.9%
same,% inhibition,HS-Sch-2 [23],7.18%
same,% inhibition,HS-PSS [24],5.39%
Cc1cnc(Nc2ccc(F)cc2Cl)nc1-c1c[nH]c(C(=O)N[C@H](CO)c2cccc(Cl)c2)c1 [VX-11E] (max concentration tested 2500 nM),drug sensitivity score,[1],4.5
same,drug sensitivity score,[2],2
same,drug sensitivity score,STS26T [3],2.55
same,drug sensitivity score,ST8814 [4],5.09
same,drug sensitivity score,S1507-2 [5],2.31 ± 3.2
same,drug sensitivity score,HS-PSS [6],0
same,drug sensitivity score,YST-1 [7],0
same,drug sensitivity score,S462 [8],0.861 ± 0.47
same,drug sensitivity score,[9],4.46
same,drug sensitivity score,[10],3.7
same,drug sensitivity score,STS26T [11],1.5
same,drug sensitivity score,ST8814 [12],3.25
same,drug sensitivity score,S1507-2 [13],1.62 ± 0.29
same,drug sensitivity score,HS-Sch-2 [14],6.97
same,drug sensitivity score,HS-PSS [15],2.39
same,% inhibition,YST-1 [16],6.16%
same,% inhibition,S462 [17],29.1 ± 8.6%
same,% inhibition,[18],71.8%
same,% inhibition,[19],64.2%
same,% inhibition,STS26T [20],34%
same,% inhibition,ST8814 [21],67.8%
same,% inhibition,S1507-2 [22],40.7 ± 3%
same,% inhibition,HS-Sch-2 [23],71.8%
same,% inhibition,HS-PSS [24],44.5%
